From US20150231147A1, “METHODS FOR ACUTE AND LONG-TERM TREATMENT OF DRUG ADDICTION” (DemeRx, Inc., priority 2014, published 2015) come the findings set out here.

This data set can be described thus: Plasma noribogaine glucuronide pharmacokinetics after noribogaine dosing, healthy volunteers. The format is in vivo, human. As to conditions: for AUC0-216 / AUC0-∞ / Cmax / Tmax / t1/2: healthy male volunteers, mean (n = 6).
[1] abbreviates: plasma glucuronide after single oral 30 mg noribogaine.
Setting [2] is: plasma glucuronide after single oral 60 mg noribogaine.

For `CC[C@H]1C[C@@H]2C[C@H]3c4[nH]c5ccc(OC6OC(C(=O)O)C(O)C(O)C6O)cc5c4CCN(C2)[C@@H]13` (some centres unmarked) [Noribogaine glucuronide], the “Mean half-life of plasma noribogaine glucuronide” value (30 mg and 60 mg noribogaine dose groups) is 21 to 23 h. In addition, the “proportion of noribogaine glucuronide Cmax and AUC relative to noribogaine” value (both dose groups (30 mg and 60 mg)) is on record as 3-4%. In addition, under setting [1], the AUC0-216 is 25.7 ng·h/mL, the “AUC0-∞” value stood at 25.8 ng·h/mL, the Cmax turned out to be 1.8 ng/mL and the Tmax came out at 3.0 h. Moreover, the t1/2 under setting [1] is 20.6 h. For the same compound, under setting [2], the AUC0-216 was 65.0 ng·h/mL, the “AUC0-∞” value amounted to 67.1 ng·h/mL, the Cmax is 4.1 ng/mL and the Tmax was found to be 3.8 h. The compound also showed a t1/2 under setting [2] of 23.1 h. Moreover, the “time of peak concentrations after noribogaine dosing” value (plasma glucuronide, 30 mg and 60 mg noribogaine dose groups) was in the range of 3 to 4 h. Under “plasma, 30 mg and 60 mg noribogaine dose groups”, the “time by which noribogaine glucuronide was detected in all subjects” value was not above 0.75 h.
